Source: US7799803B2, “Hydroxamic acid compounds and methods of use thereof” (The Trustees of Columbia University in the City of New York, priority 2003, dated 2010)
Read-outs that look alike come from different tables or passages of the source.

How the values were obtained:
[1] = target: T1, histone deacetylase, subtype 1 (HDAC1) (Homo sapiens, UniProt Q13547); assay: HDAC1-Flag in vitro deacetylation assay; format: biochemical
T1 construct: Flag; made in house
Procedure: Novel compounds were tested for their ability to inhibit histone deacetylase, subtype 1 (HDAC1) using an in vitro deacetylation assay. The enzyme source for this assay was an epitope-tagged human HDAC1 complex immuno-purified from stably expressing mammalian cells. The substrate consisted of a commercial product containing an acetylated lysine side chain (Biomol, Plymouth Meeting, Pa.). Upon deacetylation of the substrate by incubation with the purified HDAC1 complex, a fluorophore is produced that is directly proportional to the level of deacetylation. Using a substrate concentration at the Km for the enzyme preparation, the deacetylation assay was performed in the presence of increasing concentrations of novel compounds to semi-quantitatively determine the concentration of compound required for 50% inhibition (IC50) of the deacetylation reaction.

[2] = tested on: human bladder carcinoma cell line, T24; assay: T24 cell-based proliferation assay; settings: T-24, T24 cells treated 72 hours, DNA quantitated with bisbenzamide, Table 3, read-out: Cell Growth Inhbition, IC50
Procedure: Proliferation The novel compounds of the present invention were tested for their ability to inhibit growth of the human bladder carcinoma cell line, T24. Cells were treated with compounds for 72 hours, lysed by freeze/thaw to expose the DNA, and then the DNA was quantitated using the intercalating dye, bisbenzamide (Sigma). Fluorescent intensity (ex 350λ em 460λ) was directly proportional to the number of cells per well. Fluorescence values from vehicle-treated cells were determined and used as 100%.

[3] = epitope-tagged human HDAC1 complex, substrate concentration at Km, Table 2, read-out: HDAC Inhibition IC50
[4] = Table 4, additional compounds, n = 2, read-out: HDAC inhibition IC50

T1 sequence (Q13547 whole entry): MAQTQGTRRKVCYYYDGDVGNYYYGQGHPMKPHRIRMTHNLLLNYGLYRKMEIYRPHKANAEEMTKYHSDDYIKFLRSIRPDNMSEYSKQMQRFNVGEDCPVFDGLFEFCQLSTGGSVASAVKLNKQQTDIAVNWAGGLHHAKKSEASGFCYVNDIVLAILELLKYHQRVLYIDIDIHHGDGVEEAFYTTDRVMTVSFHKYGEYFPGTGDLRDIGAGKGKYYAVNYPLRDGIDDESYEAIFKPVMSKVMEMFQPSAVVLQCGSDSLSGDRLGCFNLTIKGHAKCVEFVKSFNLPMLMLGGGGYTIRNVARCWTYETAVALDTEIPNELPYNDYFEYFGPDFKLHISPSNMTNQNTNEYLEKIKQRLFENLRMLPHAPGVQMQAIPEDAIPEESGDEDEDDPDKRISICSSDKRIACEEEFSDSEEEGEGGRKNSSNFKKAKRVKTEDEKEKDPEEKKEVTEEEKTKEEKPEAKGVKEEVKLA

Compound	IC50 [1, 3]	IC50 [2]	IC50 [1, 4]
O=C(CCCCC[C@H](NC(=O)OCc1ccccc1)C(=O)NCc1ccccc1)NO [Compound 2]	37.4 nM	1400 nM	
O=C(CCCCC[C@H](NC(=O)c1ccc2ccccc2n1)C(=O)NCc1ccccc1)NO [Compound 3]	52.7 nM	1700 nM	
O=C(CCCCC[C@H](NC(=O)c1ccccc1)C(=O)NCc1ccccc1)NO [Compound 4]	73 nM	3200 nM	
O=C(CCCCC[C@H](NC(=O)c1cccnc1)C(=O)NCc1ccccc1)NO [Compound 5]	150 nM	9200 nM	
O=C(CCCCC[C@H](NC(=O)OCc1ccccc1)C(=O)Nc1ccc2ncccc2c1)NO [Compound 6a, (S)-[6-HYDROXYCARBAMOYL-1-(QUINOLIN-6-YLCARBAMOYL)-HEXYL]-CARBAMIC ACID BENZYL ESTER]	5.9 nM	200 nM	
O=C(CCCCC[C@H](NC(=O)c1ccccc1)C(=O)Nc1ccc2ncccc2c1)NO [Compound 6b, (2S)-2-BENZOYLAMINO-OCTANEDIOIC ACID 8-HYDROXYAMIDE 1-QUINOLIN-6-YLAMIDE]	1.8 nM	200 nM	
O=C(CCCCC[C@H](NC(=O)c1ccc2ccccc2n1)C(=O)Nc1ccc2ncccc2c1)NO [Compound 7]	54.5 nM	600 nM	

Results, then the compound that gave them:

IC50 [1, 3]	IC50 [2]	IC50 [1, 4]	Compound
1.6 nM	1800 nM		O=C(CCCCC[C@H](NC(=O)c1cccnc1)C(=O)Nc1ccc2ncccc2c1)NO [Compound 8]
4.1 nM	400 nM		O=C(CCCCC[C@H](NC(=O)c1cccnc1)C(=O)Nc1cccc2cccnc12)NO [Compound 9]
41.8 nM	1400 nM		O=C(CCCCC[C@H](NC(=O)c1ccc2ccccc2n1)C(=O)Nc1cccc2cccnc12)NO [Compound 10]
12.7 nM	300 nM		O=C(CCCCC[C@H](NC(=O)c1ccccc1)C(=O)Nc1cccc2cccnc12)NO [Compound 11]
		156 ± 22.6 nM	O=C(CCCCCC(C(=O)NCc1ccccc1)C(=O)NCc1ccccc1)NO [Compound 12]
		186 ± 21.9 nM	O=C(CCCCCC(C(=O)NCCc1ccccc1)C(=O)NCCc1ccccc1)NO [Compound 13]
